These are literature values, as cited in patent publication US5441887A, “Rapid degradation of halogenated hydrocarbons by soluble methane monooxygenase” (Regents of the University of Minnesota, priority 1994, dated 1995).

The subject of this data set is Methylococcus capsulatus Bath. The conditions noted are these: aerobe Methylococcus capsulatus Bath; cited from earlier work.

Consider `ClC(Cl)Cl` [chloroform], for which the Oxidation rate is recorded as 35 nano-moles per gram of cells per minute.
